Columns and labels:
[1] = James et al. (2005); cited from earlier work
FRDA lymphocyte = assay: Mitochondrial bioenergetics assessment: total cellular ATP content; assay type: cell-based; details: for cellular ATP levels: after forty hours, at lower concentration (FIG. 3)
Procedure: XI. Mitochondrial Bioenergetics Assessment
The use of CoQ10 analogues and methylene blue analogues to normalize and restore the respiratory chain activities provides valuable therapeutic approach for mitochondrial diseases. The reductions of mitochondrial respiratory chain activity in Friedreich ataxia (FRDA) patients have been reported. The efficiency of oxidative phosphorylation was evaluated in FRDA lymphocyte (GM15850) in presence of tested CoQ10 analogues and methylene blue analogues by measuring total cellular ATP content using (ViaLight®-Plus ATP monitoring reagent kit, Lonza).
FRDA lymphocyte cell lines were obtained from Coriell Cell Repositories. FRDA lymphocytes were cultured under glucose-free media supplemented with galactose for two weeks to force energy production predominantly through oxidative phosphorylation rather than glycolysis. Lymphocytes were cultured in RPMI 1640 medium glucose-free supplemented with 25 mM galactose, 2 mM glutamine and 1% penicillin-streptomycin, and 10%, dialyzed fetal bovine serum FBS (<0.5 μg/mL). Briefly, lymphocytes (2×10^5 cell/mL), were plated (1 mL in 12-well plates) and treated with the test compounds at final concentrations of 50, 125. […] Cells were transferred (100 μL) to 96-well microtiter black-walled cell culture plates. The total intracellular ATP level was measured in a luminator (Clarity™ luminescence microplate reader) with the ATP Bioluminescence Assay Kit (ViaLight®-Plus ATP monitoring reagent kit, Lonza) following the manufacturer's instructions. Carbonyl cyanide-p-trifluormethoxy-phenylhydrazone (FCCP) and oligomycin were used as control for inhibition of ATP synthesis.

CEM leukemia cells = assay: Suppression of ROS production (DCFH-DA, flow cytometry) in DEM-treated cells; assay type: cell-based; details: CEM cells treated with DEM, untreated control 100, treated control 0
Procedure: (§1) Leukemic CEM cells (ATCC®, catalogue number CRL-2264) were cultured in RPMI (GIBCO, Grand island, NY, USA) with 10% FBS (Fisher Scientific, TX, USA), 2 mM glutamine (HyClone, South Logan, Utah, USA) and 1% penicillin-streptomycin mix antibiotics (Cellgro, Manassas, Va., USA) supplements. Cells were maintained in the log phase at a concentration of between 1×10^5 and 1×10^6 cells/mL.
Cellular ROS production can be monitored using 2′,7′-dichlorodihydrofluorescein diacetate (DCFH-DA) (LeBel et al. (1992) Chem. Res. Toxicol. 5, 227-231) (Molecular Probes, Eugene, Oreg., USA), a membrane permeable and oxidant-sensitive fluorescent dye. DCFH-DA is a non-fluorescent derivative of fluorescein that emits fluorescence after being oxidized by hydrogen peroxide and other ROS. The emitted fluorescence is directly proportional to the concentration of hydrogen peroxide. DCFH-DA is nonionic and nonpolar and is easily taken up by cells. Once inside the cell, DCFH-DA is hydrolyzed by cellular esterases to non-fluorescent DCFH which traps the dye in the cell. In the presence of ROS including hydrogen peroxide, DCFH is oxidized to the highly fluorescent compound dichlorofluorescein (DCF). The intracellular DCF fluorescence is used as an index of cellular ROS production.
Cellular oxidative stress was induced by pharmacological depletion of glutathione (GSH) using the chemical diethylmaleate (DEM). […] The compounds tested were prepared by first making stock solutions (1 mM) in dimethylsulfoxide (DMSO). Cells were treated with 5 mM DEM for 30 minutes and collected by centrifugation at 300×g for 3 min and then washed twice with Phosphate Buffer Saline (PBS) (Invitrogen, N.Y., USA). Cells were re-suspended in PBS buffer+10 mM glucose and incubated at 37° C. in the dark for 20 min with 10 μM DCFH-DA. Cells were collected by centrifugation at 300×g for 3 min and then washed twice with PBS buffer. The samples were analyzed immediately by flow cytometry (Becton-Dickinson FACS Caliber), (Cell Quest software, BD Biosciences) using 488 nm excitation laser and FL1-H channel 538 nm emission filter. In each analysis, 10,000 events were recorded after cell debris were electronically gated out. Results obtained were verified by running duplicates and repeating experiments N=3 independent experiments. Authentic hydrogen peroxide was used as a positive control.

leukemia CEM lymphocytes = assay: Suppression of lipid peroxidation (C11-BODIPY 581/591, FACS) in DEM-treated cells; assay type: cell-based; details: CEM cells treated with DEM, untreated control 100, treated control 0
Procedure: as §1
Measurement of C11-BODIPY^581/591 Oxidation in Cell Culture
Lipid peroxidation in cells was detected by utilizing the oxidant-sensitive lipophilic probe C11 BODIPY^581/591. […] Cells were treated with 500 nM C11 BODIPY^581/591 in phenol red-free RPMI-1640 media and incubated at 37° C. in the dark for 30 minutes. The cells were washed twice with phosphate buffered saline and oxidative stress was induced with 5 mM DEM in phenol red-free RPMI-1640 media for 90 minutes. Treated cells were collected by centrifugation at 300×g for 3 minutes and then washed twice with phosphate buffered saline. Cells were re-suspended in 250 μL of phosphate buffered saline and were analyzed by FACS (FACS Calibur flow cytometer, Becton Dickinson) to monitor the change in intensity of the C11 BODIPY^581/591 green (oxidized) fluorescence signal.

[2] = test system: bovine heart mitochondrial complex (I, III, IV); assay: NADH oxidase inhibition assay (beef heart submitochondrial particles); assay type: biochemical
Procedure: X. NADH Oxidase Inhibition Assay
Beef heart mitochondria were obtained by a large-scale procedure. Inverted submitochondrial particles (SMP) were prepared by the method of Matsuno-Yagi and Hatefi (J. Biol. Chem. 260 (1985), p. 14424), and stored in a buffer containing 0.25 M sucrose and 10 mM Tris-HCl (pH 7.4) at −80° C. Inhibitory effects of compounds on bovine heart mitochondrial complex (I, III, IV) were evaluated. Maximal dimethyl sulfoxide concentration never exceeded 2% and had no influence on the control enzymatic activity. Beef heart SMP were diluted to 0.5 mg/mL. The enzymatic activities were assayed at 30° C. and monitored spectrophotometrically with a Beckman Coulter DU-530 (340 nm, ε=6.22 mM^−1 cm^−1). NADH oxidase activity was determined in a reaction medium (2.5 mL) containing 50 mM Hepes, pH 7.5, containing 5 mM MgCl2. The final mitochondrial protein concentration was 30 μg/mL. After the pre-equilibration of SMP with inhibitor for 5 min, the initial rates were calculated from the linear portion of the traces.

FRDA cell line = assay: Trypan blue exclusion cell viability assay, DEM-stressed cells; assay type: cell-based; details: FRDA cells stressed with DEM
Procedure: as §1, with “Friedreich's Ataxia lymphocytes and control” for “Leukemic CEM”, “(Coriell,” for “(ATCC®,”, “[…], respectively)” for “CRL-2264)”, “15%” for “10%”
V. Trypan Blue Cell Viability Assay
Cell viability determined by trypan blue exclusion assay: This technique was used to assess the cytoprotective effects of the invention compounds in cultured cells pharmacologically treated to induce cell death by GSH depletion. DEM was used to deplete cellular GSH and induce oxidative stress. The viability of DEM-treated cells was determined by their ability to exclude the dye trypan blue. Viable cells exclude trypan blue; whereas, non-viable cells take up the dye and stain blue. Briefly, cells were seeded at a density of 1×10^6 cells/mL and treated with different concentrations of the invention compounds. Cells were incubated at 37° C. in a humidified atmosphere of 5% CO2 in air for three hours with 5 mM DEM. Cell viability was determined by staining cells with 0.4% trypan blue using a hemocytometer. At least 500 cells were counted for each experimental group. At the time of assay, >95% of DEM-treated cells were trypan blue positive; whereas, in non-DEM treated control cell cultures >95% cells were viable. Cell viability was expressed as the percentage of control. Data are expressed as means±S.E.M (n=3).

COC1=C(OC)C(=O)C(C/C=C(\C)CC/C=C(\C)CC/C=C(\C)CC/C=C(\C)CC/C=C(\C)CC/C=C(\C)CC/C=C(\C)CC/C=C(\C)CC/C=C(\C)CCC=C(C)C)=C(C)C1=O [coenzyme Q10]
calculated octanol-water partition coefficient [1]: > 10^20

CN(C)c1ccc2nc3ccc(=O)cc-3sc2c1 [CPD-18, 7-(dimethylamino)-3H-phenothiazin-3-one]
cellular ATP levels (FRDA lymphocyte): significantly increased cellular ATP levels
maintaining ATP levels, compared with methylene blue (FRDA lymphocyte; at higher concentrations): superior to methylene blue

CN(C)c1ccc2nc3ccc(=[N+](C)C)cc-3sc2c1 [methylene blue, reference compound]
cellular ATP levels (FRDA lymphocyte): significantly increased cellular ATP levels

CCCCCCCCCCCCCCCCc1c(C)n(O)c(C)c(N)c1=O [CPD-4, 3-amino-5-hexadecyl-1-hydroxy-2,6-dimethylpyridin-4(1H)-one]
% of scavenging activity (ROS) (CEM leukemia cells; 0.25 μM): 41.4 ± 14.9%
% of scavenging activity (ROS) (CEM leukemia cells; 2.5 μM): 81.8 ± 3.7%
% of scavenging activity (ROS) (CEM leukemia cells; 10 μM): 91.0 ± 1.5%
Scavenging activity (%) (lipid peroxidation) (leukemia CEM lymphocytes; 1 μM): 18 ± 2.2%
Scavenging activity (%) (lipid peroxidation) (leukemia CEM lymphocytes; 2.5 μM): 52 ± 1.5%
Scavenging activity (%) (lipid peroxidation) (leukemia CEM lymphocytes; 5 μM): 94 ± 0.2%
NADH oxidase (complex I, III, IV) activity (%) ([2]; 5 μM compound): 12.7 ± 1.7%
NADH oxidase (complex I, III, IV) activity (%) ([2]; 10 μM compound): 10.7 ± 1.3%
NADH oxidase (complex I, III, IV) activity (%) ([2]; l μM compound): 17.1 ± 1^ %
viability at 0.1 µM (FRDA cell line; 0.1 μM): 17 ± 5%
viability at 0.5 µM (FRDA cell line; 0.5 μM): 21 ± 9%
viability at 2.5 µM (FRDA cell line; 2.5 μM): 35 ± 9%

— US9388163B2, “Multifunctional radical quenchers for the treatment of mitochondrial dysfunction” (Arizona Board of Regents, a Body Corporate of the State of …, priority 2011, dated 2016)
